Drawing on patent US9732094B2, “Arylquinazolines” (Merck Patent GmbH, priority 2013, dated 2017), this text covers Ki and IC50 for 24 compounds.

The target in one data set is Kv11.1 (hERG) (Homo sapiens (Human), UniProt Q12809). Kind of data set: Kv11.1 (hERG) ion channel activity (patch clamp assay), HEK293 cells transfected with hERG gene. (In general: Block of hERG is tested as a sign of cardiac risk.)
In data set [1] the target is DNA-PK phosphorylation at serine 2056 (Homo sapiens (Human), UniProt P78527). Kind of data set: DNA-PK phosphorylation at serine 2056 (cellular), bleomycin-treated HCT116 cells, ELISA. It counts as cell-based. Particulars: read-out: IC50 pDNA-PK. The essentials: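 Chemiluminescent ELISA read-out; phospho-specific signal normalised to total DNA-PKcs. Cells (HCT116) exposed 6 h to test compound plus 10 μM bleomycin to induce double-strand breaks; DMSO control served as blank.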

The next data set deals with DNA-PK (Homo sapiens (Human), UniProt P78527). Briefly: DNA-PK assay (biochemical), flashplate 33P-ATP kinase assay. The method in brief:
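Radiometric kinase reaction in streptavidin-coated flashplates, stopped with 200 mM EDTA, then 30 min room-temperature incubation and saline washes.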

Where [2] appears, read: read-out: Ki [Kv1.11 hERG], Table 5.
The mark [3] stands for this setting: read-out: Ki [Kv1.11 hERG], hERG patch clamp assay (cells without asterisk).
[4] abbreviates: cellular DNA-PK phosphorylation at serine 2056, HCT116.
The mark [5] stands for this setting: read-out: Ki [Kv1.11 hERG], patch clamp, HEK293 transfected with hERG gene.
The mark [6] stands for this setting: cellular, HCT116 cells, 10 μM bleomycin, six hours.
[7] abbreviates: Ki [Kv1.11 hERG], patch clamp, HEK293 transfected with hERG gene.
Where [8] appears, read: Ki [Kv1.11 hERG], hERG patch clamp assay (cells without asterisk).

Read-outs that look alike come from different tables or passages of the source. A value given as a limit tells only on which side of the number the result lay.

Chain of Kv11.1 (hERG) (Q12809 whole entry): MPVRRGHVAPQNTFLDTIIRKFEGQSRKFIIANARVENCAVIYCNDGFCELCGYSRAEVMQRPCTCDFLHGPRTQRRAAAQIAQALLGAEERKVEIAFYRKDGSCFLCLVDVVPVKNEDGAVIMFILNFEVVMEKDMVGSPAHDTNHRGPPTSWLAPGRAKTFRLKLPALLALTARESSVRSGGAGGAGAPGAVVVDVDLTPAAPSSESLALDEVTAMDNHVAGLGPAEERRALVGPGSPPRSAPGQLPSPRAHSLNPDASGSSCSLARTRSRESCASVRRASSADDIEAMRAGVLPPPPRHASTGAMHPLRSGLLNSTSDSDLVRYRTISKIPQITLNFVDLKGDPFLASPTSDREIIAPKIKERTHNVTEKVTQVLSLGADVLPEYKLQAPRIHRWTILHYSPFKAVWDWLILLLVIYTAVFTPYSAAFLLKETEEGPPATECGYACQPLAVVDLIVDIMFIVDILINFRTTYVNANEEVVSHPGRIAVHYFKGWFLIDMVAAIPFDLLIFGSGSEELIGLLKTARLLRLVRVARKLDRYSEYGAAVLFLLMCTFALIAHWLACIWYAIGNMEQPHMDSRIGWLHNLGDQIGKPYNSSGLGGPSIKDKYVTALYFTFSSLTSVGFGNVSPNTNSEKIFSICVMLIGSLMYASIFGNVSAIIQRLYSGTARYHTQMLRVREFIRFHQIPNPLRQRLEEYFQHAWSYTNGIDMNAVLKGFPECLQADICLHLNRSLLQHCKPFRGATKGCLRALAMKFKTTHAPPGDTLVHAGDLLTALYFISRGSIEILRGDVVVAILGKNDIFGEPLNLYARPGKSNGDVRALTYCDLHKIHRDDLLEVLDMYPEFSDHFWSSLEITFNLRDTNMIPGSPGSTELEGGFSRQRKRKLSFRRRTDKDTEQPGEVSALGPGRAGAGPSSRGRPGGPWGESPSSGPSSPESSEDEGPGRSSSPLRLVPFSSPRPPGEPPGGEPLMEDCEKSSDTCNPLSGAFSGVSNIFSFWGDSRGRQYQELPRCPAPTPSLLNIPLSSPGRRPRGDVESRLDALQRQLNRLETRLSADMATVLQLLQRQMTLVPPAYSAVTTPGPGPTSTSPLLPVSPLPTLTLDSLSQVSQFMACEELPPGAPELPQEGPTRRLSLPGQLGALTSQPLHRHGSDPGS

For `Cc1nc(C(O)c2cnc(F)c(-c3ncnc4cc(N5CCOCC5)ncc34)c2)sc1C` (stereo not drawn) [Example 196, (4,5-Dimethyl-thiazol-2-yl)-[6-fluoro-5-(7-morpholin-4-yl-pyrido[4,3-d)-pyrimidin-4-yl)-pyridin-3-yl]-methanol], the inhibition constant Ki at Kv11.1 (hERG) (setting [2]) was > 25 µM. In addition, the IC50 was 10 to 30 µM in data set [1] (Table 5, HCT116 cells) and 0.007 to 0.03 µM at DNA-PK (Table 5).

For the compound `COc1ccc(C(C(N)=O)c2ccc(F)c(-c3ncnc4cc(N5CCOCC5)ccc34)c2)nn1` (stereo not drawn) [Example 308, 2-[4-Fluoro-3-(7-morpholin-4-yl-quinazolin-4-yl)-phenyl]-2-(6-methoxypyridazin-3-yl)acetamide], the Ki on Kv11.1 (hERG) (setting [3]) was > 25 µM. Besides, the half-inhibitory concentration (IC50) in data set [1] (setting [4]) lay within 10 to 30 µM; against DNA-PK (biochemical DNA-PK assay) it was 0.007 to 0.03 µM.

In the case of `COc1nnccc1C(C(N)=O)c1cc(-c2ncnc3cc(N4CCOCC4)ccc23)c(F)cc1Cl` (stereo not drawn) [Example 307, 2-[2-Chloro-4-fluoro-5-(7-morpholin-4-yl-quinazolin-4-yl)-phenyl]-2-(3-methoxypyridazin-4-yl)acetamide], the Ki at Kv11.1 (hERG) (setting [3]) is > 25 µM. Besides, the IC50 in data set [1] (setting [4]) is 5 to 10 µM; at DNA-PK (biochemical DNA-PK assay) it was 0.003 to 0.007 µM.

Regarding `Cn1cnc2ncnc([C@H](O)c3cc(-c4ncnc5cc(N6CCOCC6)ccc45)c(F)cc3F)c21` [Example 384, (R)-[2,4-Difluoro-5-(7-morpholin-4-yl-quinazolin-4-yl)-phenyl]-(7-methyl-7H-purin-6-yl)-methanol], the Ki at Kv11.1 (hERG) (setting [3]) is > 25 µM. In addition, the IC50 in data set [1] (setting [4]) fell in the range of 10 to 30 µM; on DNA-PK (biochemical DNA-PK assay), 0.007 to 0.03 µM.

Consider `Cc1nc(C(O)c2ccc(F)c(-c3ncnc4cc(N5CCOCC5)ccc34)c2)sc1CO` (stereo not drawn) [Example 200, [4-Fluoro-3-(7-morpholin-4-yl-quinazolin-4-yl)-phenyl]-(5-hydroxy-methyl-4-methyl-thiazol-2-yl)-methanol], for which the Ki on Kv11.1 (hERG) (setting [2]) was > 25 µM. Besides, the IC50 in data set [1] (Table 5, HCT116 cells) lay in the range of 5 to 10 µM; at DNA-PK (Table 5), 0.003 to 0.007 µM.

For `O=c1ccc(C(O)c2cc(-c3ncnc4cc(N5CCOCC5)ccc34)c(F)cc2Cl)nn1C1CC1` (stereo not drawn) [Example 95, 6-{[2-Chloro-4-fluoro-5-(7-morpholin-4-yl-quinazolin-4-yl)phenyl]-hydroxymethyl}-2-cyclopropyl-2H-pyridazin-3-one], the Ki on Kv11.1 (hERG) (setting [5]) is > 25 µM. In addition, the half-inhibitory concentration (IC50) in data set [1] (setting [6]) was 0.5 to 5 µM; on DNA-PK (enzymatic, 5 μM ATP) it was 0.007 to 0.03 µM.

For the compound `CC(C#N)Oc1ccc(C(O)c2cc(-c3ncnc4cc(N5CCOCC5)ccc34)c(F)cc2Cl)nn1` (stereo not drawn) [Example 101, 2-(6-{[2-Chloro-4-fluoro-5-(7-morpholin-4-yl-quinazolin-4-yl)-phenyl)hydroxy-methyl}pyridazin-3-yloxy)propionitrile], at Kv11.1 (hERG) (setting [7]), the inhibition constant Ki was 10 to 15 µM. In addition, the IC50 in data set [1] (setting [6]) is < 0.5 µM; against DNA-PK (enzymatic, 5 μM ATP), < 0.003 µM.

`Cn1cnc2c(C(O)c3cc(-c4ncnc5cc(N6CCOCC6)ccc45)c(F)cc3F)ncnc21` (stereo not drawn) [Example 346, [2,4-Difluoro-5-(7-morpholin-4-yl-quinazolin-4-yl)-phenyl]-(9-methyl-9H-purin-6-yl)-methanol] returned a Ki at Kv11.1 (hERG) (setting [8]) of 15 to 25 µM. For the same compound, the IC50 was in the range of 10 to 30 µM in data set [1] (setting [4]) and 0.007 to 0.03 µM on DNA-PK (biochemical DNA-PK assay).

As to `Cn1cnc2c(C(O)c3ccc(F)c(-c4ncnc5cc(N6CCOCC6)ccc45)c3)ncnc21` (stereo not drawn) [Example 420, [4-Fluoro-3-(7-morpholin-4-yl-quinazolin-4-yl)-phenyl]-(9-methyl-9H-purin-6-yl)-methanol], the Ki on Kv11.1 (hERG) (setting [3]) was > 25 µM. For the same compound, the half-maximal inhibitory concentration (IC50) lay in the range of 5 to 10 µM in data set [1] (setting [4]) and 0.007 to 0.03 µM on DNA-PK (biochemical DNA-PK assay).

Consider `NC(=O)Cn1nc(C(O)c2cc(-c3ncnc4cc(N5CCOCC5)ccc34)c(F)cc2Cl)ccc1=O` (stereo not drawn) [Example 98, 2-{3-{[2-Chloro-4-fluoro-5-(7-morpholin-4-ylquinazolin-4-yl)-phenyl]hydroxymethyl}-6-oxo-6H-pyridazin-1-yl)acetamide], for which, on Kv11.1 (hERG) (setting [5]), the Ki is > 25 µM. The IC50 was in the range of 10 to 30 µM in data set [1] (setting [6]) and 0.003 to 0.007 µM against DNA-PK (enzymatic, 5 μM ATP).

For the compound `Cn1nc(C(C(N)=O)c2ccc(F)c(-c3ncnc4cc(N5CCOCC5)ccc34)c2)ccc1=O` (stereo not drawn) [Example 317, 2-[4-Fluoro-3-(7-morpholin-4-yl-quinazolin-4-yl)-phenyl]-2-(1-methyl-6-oxo-1,6-dihydro-pyridazin-3-yl)-acetamide], on Kv11.1 (hERG) (setting [8]), the inhibition constant Ki was 15 to 25 µM. The IC50 was 10 to 30 µM in data set [1] (setting [4]) and > 0.03 µM on DNA-PK (biochemical DNA-PK assay).

As for `Cn1c(C(O)c2cc(-c3ncnc4cc(N5CCOCC5)ccc34)c(F)cc2Cl)cccc1=O` (stereo not drawn) [Example 435, 6-{[2-Chloro-4-fluoro-5-(7-morpholin-4-yl-quinazolin-4-yl)-phenyl]hydroxy-methyl}-l-methyl-1H-pyridin-2-one], the Ki on Kv11.1 (hERG) (setting [3]) was > 25 µM. The IC50 in data set [1] (setting [4]) was < 0.5 µM; against DNA-PK (biochemical DNA-PK assay) it was 0.003 to 0.007 µM.

For `Cc1nccnc1C(C(N)=O)c1cc(-c2ncnc3cc(N4CCOCC4)ccc23)c(F)cc1F` (stereo not drawn) [Example 329, 2-[2,4-Difluoro-5-(7-morpholin-4-yl-quinazolin-4-yl)-phenyl]-2-(3-methyl-pyrazin-2-yl)-acetamide], the Ki on Kv11.1 (hERG) (setting [3]) is > 25 µM. Moreover, the IC50 lay in the range of 5 to 10 µM in data set [1] (setting [4]) and 0.007 to 0.03 µM against DNA-PK (biochemical DNA-PK assay).

Regarding `Cn1cnc2ncnc(C(O)c3cc(-c4ncnc5cc(N6CCOCC6)ccc45)c(F)cc3Cl)c21` (stereo not drawn) [Example 423, [2-Chloro-4-fluoro-5-(7-morpholin-4-yl-quinazolin-4-yl)-phenyl]-(7-methyl-7H-purin-6-yl)-methanol], on Kv11.1 (hERG) (setting [3]), the Ki is > 25 µM. Moreover, the IC50 lay in the range of 5 to 10 µM in data set [1] (setting [4]) and 0.007 to 0.03 µM on DNA-PK (biochemical DNA-PK assay).

`O=C(O)c1ccc(C(O)c2cc(-c3ncnc4cc(N5CCOCC5)ccc34)c(F)cc2Cl)nn1` (stereo not drawn) [Example 55, 6-{[2-Chloro-4-fluoro-5-(7-morpholin-4-yl-quinazolin-4-yl)phenyl]-hydroxymethyl}-pyridazine-3-carboxylic acid]: the inhibition constant (Ki) on Kv11.1 (hERG) (setting [5]) is > 25 µM. For the same compound, the IC50 in data set [1] (setting [6]) lay within 10 to 30 µM; at DNA-PK (enzymatic, 5 μM ATP), 0.003 to 0.007 µM.

In the case of `OC(c1ccc2nccn2n1)c1cc(-c2ncnc3cc(N4CCOCC4)ccc23)c(F)cc1Cl` (stereo not drawn) [Example 63, [2-Chloro-4-fluoro-5-(7-morpholin-4-yl-quinazolin-4-yl)phenyl]-imidazo[1,2-b]pyridazin-6-ylmethanol], the Ki at Kv11.1 (hERG) (setting [5]) lay in the range of 10 to 15 µM. The IC50 in data set [1] (setting [6]) was 0.5 to 5 µM; against DNA-PK (enzymatic, 5 μM ATP), < 0.003 µM.

Compound `NC(=O)C(c1cncc(Cl)c1)c1ccc(F)c(-c2ncnc3cc(N4CCOCC4)ccc23)c1` (stereo not drawn) [Example 297, 2-(5-Chloro-pyridin-3-yl)-2-[4-fluoro-3-(7-morpholin-4-yl-quinazolin-4-yl)-phenyl]acetamide] registered a Ki at Kv11.1 (hERG) (setting [8]) of 10 to 15 µM. In addition, the IC50 lay within 10 to 30 µM in data set [1] (setting [4]) and 0.007 to 0.03 µM against DNA-PK (biochemical DNA-PK assay).

As to `OC(c1cc(-c2ncnc3cc(N4CCOCC4)ccc23)c(F)cc1Cl)c1nccn2cccc12` (stereo not drawn) [Example 359, [2-Chloro-4-fluoro-5-(7-morpholin-4-yl-quinazolin-4-yl)-phenyl]pyrrolo[1,2-a]-pyrazin-1-ylmethanol], the Ki at Kv11.1 (hERG) (setting [3]) is < 10 µM. In addition, the IC50 is < 0.5 µM in data set [1] (setting [4]) and < 0.003 µM against DNA-PK (biochemical DNA-PK assay).

As to `OC(c1cc(-c2ncnc3cc(N4CCOCC4)ccc23)c(F)cc1F)c1nccnc1OC(F)F` (stereo not drawn) [Example 451, (3-Difluoromethoxy-pyrazin-2-yl)-[2,4-difluoro-5-(7-morpholin-4-yl-quinazolin-4-yl)-phenyl]methanol], the Ki on Kv11.1 (hERG) (setting [3]) was in the range of 15 to 25 µM. The IC50 in data set [1] (setting [4]) lay in the range of 0.5 to 5 µM; on DNA-PK (biochemical DNA-PK assay) it was 0.003 to 0.007 µM.

At Kv11.1 (hERG) (human, HEK293 cells stably transfected with the hERG gene, Ki [Kv1.11 hERG], patch clamp, HEK293 transfected with hERG gene), `COc1ccc(C(O)c2cc(-c3ncnc4cc(N5CCOCC5)sc34)c(F)cc2Cl)nn1` (single isomer, unassigned) [Example 126, [2-Chloro-4-fluoro-5-(6-morpholin-4-ylthieno[3,2-d}-pyrimidin-4-yl)-phenyl]-(6-methoxy-pyridazin-3-yl)-methanol] displayed a Ki of 10 to 15 µM. Moreover, the IC50 in data set [1] (setting [6]) is < 0.5 µM; at DNA-PK (enzymatic, 5 μM ATP), < 0.003 µM.

`COc1ccc(C(C(N)=O)c2cc(-c3ncnc4cc(N5CCOCC5)ccc34)ccc2Cl)nn1` (stereo not drawn) [Example 310, 2-[2-Chloro-5-(7-morpholin-4-yl-quinazolin-4-yl)-phenyl]-2-(6-methoxy-pyridazin-3-yl)acetamide] showed a Ki at Kv11.1 (hERG) (setting [8]) of 15 to 25 µM. Also, the IC50 in data set [1] (setting [4]) is 10 to 30 µM; on DNA-PK (biochemical DNA-PK assay), > 0.03 µM.

Compound `Cn1cnc2c(C(O)c3cc(-c4ncnc5cc(N6CCOCC6)ccc45)ccc3Cl)ncnc21` (stereo not drawn) [Example 371, [2-Chloro-5-(7-morpholin-4-yl-quinazolin-4-yl)-phenyl]-(9-methyl-9H-purin-6-yl)-methanol] came in with an inhibition constant Ki at Kv11.1 (hERG) (setting [8]) of 10 to 15 µM. Also, the IC50 in data set [1] (setting [4]) is 0.5 to 5 µM; against DNA-PK (biochemical DNA-PK assay) it was 0.007 to 0.03 µM.

For `OC(c1ccc(F)c(-c2ncnc3cc(N4CCOCC4)ccc23)c1)c1ncnn2cccc12` (stereo not drawn) [Example 345, [4-Fluoro-3-(7-morpholin-4-yl-quinazolin-4-yl)-phenyl]pyrrolo[2,1-f]-[1,2,4]triazin-4-yl-methanol], the Ki on Kv11.1 (hERG) (setting [3]) was < 10 µM. Further, the IC50 is < 0.5 µM in data set [1] (setting [4]) and < 0.003 µM at DNA-PK (biochemical DNA-PK assay).

As for `COc1ccc(C(C)(O)c2cc(-c3ncnc4cc(N5CCOCC5)ccc34)c(F)cc2Cl)nn1` (stereo not drawn) [Example 125, 1-[2-Chloro-4-fluoro-5-(7-morpholin-4-yl-quinazolin-4-yl)-phenyl]-1-(6-methoxy-pyridazin-3-yl)-ethanol], on Kv11.1 (hERG) (setting [7]), the Ki is 15 to 25 µM. The half-inhibitory concentration (IC50) in data set [1] (setting [6]) fell in the range of 10 to 30 µM; against DNA-PK (enzymatic, 5 μM ATP), 0.003 to 0.007 µM.

Usually Ki stands for the equilibrium dissociation constant of an inhibitor or competing ligand from its target. One may read the IC50 as the concentration that inhibits the measured activity by half.
